Reference: patent US20260297042A1, “BIARYLAMIDE DERIVATIVES AND THEIR USE AS PKMYT1 INHIBITORS” (CANCER RESEARCH TECHNOLOGY LIMITED, priority 2023, published 2026)

Columns and labels:
[1] = system: h-TERT-RPE1 TP53−/− parental cells; test: Nuclear count cell proliferation assay, parental (wild type) h-TERT-RPE1 TP53−/− cells; format: cell-based; details: hTERT-RPE1, h-TERT-RPE1 TP53−/− parental (Wt), around 6 population doublings, banded, read-out: RPE Wt GI50
Procedure: (§1) h-TERT-RPE1 TP53−/− and CCNE1 high expressing clones (clone cell lines 7 and 15) were treated with test compounds dissolved in DMSO at serially diluted concentrations alongside a DMSO only control for around 6 population doublings time. Cells were then fixed with 4% Paraformaldehyde and the cell nuclei were stained with DAPI (Sigma D9542). Images covering each well were acquired by an Opera Phenix® High-Content Screening System (PerkinElmer). Image analysis was performed using Harmony® high-content analysis software (PerkinElmer). Data analysis was performed using Microsoft Excel® and GI50 estimates generated with GraphPad Prism v9. Percent nuclear count was compared to vehicle control wells and used to measure inhibition of proliferation.

[2] = target: T1, WEE1 (Homo sapiens, UniProt P30291); test: Selectivity versus WEE1 assay (ADP-Glo enzymatic assay); format: biochemical; details: for IC50: ADP-Glo; for PKMYT1 vs. WEE1 selectivity: fold difference in selectivity for PKMYT1 over WEE1
T1 construct: purchased Thermo Fisher PR7373A
T1 sequence (P30291 whole entry): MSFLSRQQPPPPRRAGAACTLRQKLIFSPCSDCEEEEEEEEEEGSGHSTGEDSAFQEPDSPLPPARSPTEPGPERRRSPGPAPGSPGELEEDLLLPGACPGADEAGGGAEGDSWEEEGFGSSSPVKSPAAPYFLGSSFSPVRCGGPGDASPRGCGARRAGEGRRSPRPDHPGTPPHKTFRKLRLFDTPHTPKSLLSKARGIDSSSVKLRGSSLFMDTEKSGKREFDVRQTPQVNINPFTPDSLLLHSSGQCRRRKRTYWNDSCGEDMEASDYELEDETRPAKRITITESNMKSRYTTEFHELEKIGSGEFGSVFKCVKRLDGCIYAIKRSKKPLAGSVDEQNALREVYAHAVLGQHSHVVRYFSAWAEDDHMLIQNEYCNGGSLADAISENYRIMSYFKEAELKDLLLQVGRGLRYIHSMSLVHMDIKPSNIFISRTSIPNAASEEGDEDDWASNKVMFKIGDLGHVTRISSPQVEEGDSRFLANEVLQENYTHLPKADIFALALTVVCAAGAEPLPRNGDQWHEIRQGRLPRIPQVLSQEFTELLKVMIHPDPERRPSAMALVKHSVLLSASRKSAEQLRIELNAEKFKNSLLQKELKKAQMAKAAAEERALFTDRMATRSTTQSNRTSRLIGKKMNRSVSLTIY
Summary of the method: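 ADP-Glo luminescence read-out after a 60 min reaction at 26° C, initiated by 30 µM ATP, with 15 nM enzyme in HEPES pH 7.5/MgCl2/EGTA/Brij-35 buffer containing 1% DMSO. Replicate IC50 values had to agree within 3-fold and fits needed r2 >0.9.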

[3] = target: T2, Human PKMYT1 (Homo sapiens, UniProt Q99640); test: PKMYT1 biochemical ADP-Glo enzymatic assay; details: ADP-Glo
T2 construct: Human PKMYT1 75-362 was cloned as a TEV cleavable 6xHis fusion; 6xHis (TEV cleavable) (cleaved yes); made in house; host or cells: bacterial cells
T2 sequence (Q99640 75-362): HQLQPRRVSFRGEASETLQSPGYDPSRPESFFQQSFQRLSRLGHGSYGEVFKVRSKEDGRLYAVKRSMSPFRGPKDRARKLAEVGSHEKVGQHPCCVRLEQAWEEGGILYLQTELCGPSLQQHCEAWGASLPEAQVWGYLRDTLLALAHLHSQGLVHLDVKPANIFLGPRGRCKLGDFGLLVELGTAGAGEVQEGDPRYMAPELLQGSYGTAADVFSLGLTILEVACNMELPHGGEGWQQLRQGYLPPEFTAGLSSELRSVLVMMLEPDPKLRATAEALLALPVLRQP
Summary of the method: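 Luminescent ADP-Glo Max read-out of ADP produced by 15 nM PKMYT1 (residues 75-362, bacterial, His-tag removed) from 500 µM ATP without peptide substrate. Reaction: 50 mM HEPES pH 7.5, 10 mM MgCl2, 1 mM EGTA, 0.01% Brij-35, 60 min, 26 °C. IC50 values fitted from 10-point curves.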

[4] = system: h-TERT-RPE1 TP53−/− CCNE1 high expressing clone cell line 7 (CL7); test: Nuclear count cell proliferation assay, CCNE1 high expressing clone cell line 7 (CL7) of h-TERT-RPE1 TP53−/−; format: cell-based; details: banded; for Selectivity Ratio Wt vs. CL7: GI50 ratio RPE Wt vs. CL7, >N = at least in this band; for GI50: hTERT-RPE1, h-TERT-RPE1 TP53−/− CCNE1 high clone CL7, nuclear count, around 6 population doublings, read-out: RPE CL7 GI50
Procedure: as §1

[5] = system: KYSE-30 cells; test: Cancer cell line proliferation assay, ATP-based cell viability (Cell Titre Glow), KYSE-30 (normal CCNE1); details: Homo sapiens, KYSE-30 cells (normal CCNE1), concentration that achieves 50% cell growth proliferation inhibition, read-out: KYSE30 Gl50
Summary of the method: (§2)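 Cells were treated with PKMYT1 inhibitors, then proliferation was assessed with CellTiter-Glo and luminescence read. GI50 values were fitted from the resulting data.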

[6] = target: T3, Cellular PKMYT1 Biomarker CDK1 pT14 (Homo sapiens, UniProt Q99640); test: Inhibition of cellular PKMYT1 biomarker CDK1 pT14 in OVCAR 3 cells (immunoblot); format: cell-based; details: 20 hours incubation
T3 construct: read-out CDK1 phospho-T14 immunoblot
T3 sequence (Q99640 1-499): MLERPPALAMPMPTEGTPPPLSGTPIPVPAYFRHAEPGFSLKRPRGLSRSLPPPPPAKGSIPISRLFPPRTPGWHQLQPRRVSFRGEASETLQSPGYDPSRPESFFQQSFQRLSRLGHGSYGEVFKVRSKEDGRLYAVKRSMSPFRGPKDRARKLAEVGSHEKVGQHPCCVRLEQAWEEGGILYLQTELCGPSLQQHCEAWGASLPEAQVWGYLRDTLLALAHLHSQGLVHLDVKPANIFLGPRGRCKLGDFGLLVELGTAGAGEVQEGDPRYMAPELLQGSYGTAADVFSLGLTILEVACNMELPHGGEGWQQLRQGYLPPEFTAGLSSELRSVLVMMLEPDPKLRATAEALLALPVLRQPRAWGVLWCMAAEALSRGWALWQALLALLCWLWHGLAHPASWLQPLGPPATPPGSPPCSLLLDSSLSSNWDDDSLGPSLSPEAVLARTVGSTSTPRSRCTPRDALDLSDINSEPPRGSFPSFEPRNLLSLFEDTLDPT
Summary of the method: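 Confluent OVCAR 3 cells treated with a compound concentration range for 20 h at 37 °C. Lysates analysed by automated capillary immunoblot for CDK1 phospho-T14, with vinculin, fluorescence detection; IC50 by regression.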

[7] = system: OVCAR 3 cells; test: Cancer cell line proliferation assay, ATP-based cell viability (Cell Titre Glow), OVCAR 3 (CCNE1-amplified); details: KYSE30 (normal CCNE1) GI50 vs. OVCAR 3 (CCNE1-amplified) GI50
Summary of the method: as §2

[8] = 15 nM WEE1, 60 minutes at 26° C., banded
[9] = banded, ">N" = at least in this band but could be higher
[10] = 15 nM PKMYT1 kinase domain, 500 µM ATP, 60 minutes at 26° C., banded
[11] = PKMYT1 kinase domain 15 nM, banded values

IC50 [2, 8] [nM] | PKMYT1 vs. WEE1 selectivity [2, 9] | IC50 [3, 10] [nM] | IC50 [6] [nM] | IC50 ([2]; WEE1 15 nM, banded values) [nM] | PKMYT1 vs. WEE1 selectivity ([2]; banded) | IC50 [3, 11] [nM] | Compound | GI50 [1] [nM] | Selectivity Ratio Wt vs. CL7 [4] | GI50 [4] [nM] | GI50 [5] [nM] | Selectivity ratio KYSE30 Gl50 vs. OVCAR3 Gl50 [7]
> 11000 | >X (100-<1000 fold) | 50 to 1000 | – | – | – | – | Cc1ccc(O)c(C)c1NC(=O)c1cnc(NCCCNC(=O)OC(C)(C)C)s1 [BAA-071, tert-butyl N-[3-[5-[(3-hydroxy-2,6-dimethyl-phenyl)carbamoyl]thiazol-2-yllamino]propyl]carbamate] | > 10000 | X (3-<10 fold) | 500 to 3000 | – | –
> 11000 | >X (100-<1000 fold) | 50 to 1000 | – | – | – | – | Cc1ccc(O)c(C)c1NC(=O)c1cnc(Nc2ccn([C@@H]3CCN(Cc4ccccc4)C3)n2)s1 [BAA-113, 2-[[1-[(3R)-1-Benzylpyrrolidin-3-yl]pyrazol-3-yl]amino]-N-(3-hydroxy-2,6-dimethyl-phenyl)thiazole-5-carboxamide] | 3000 to 10000 | Y (10-30 fold) | 500 to 3000 | – | –
> 11000 | Y (1000-5000 fold) | < 50 | – | – | – | – | Cc1ccc(O)c(C)c1NC(=O)c1cnc(Nc2ccn(CC(=O)N3CCC(C)(C)CC3)n2)s1 [BAA-137] | 500 to 3000 | X (3-<10 fold) | 500 to 3000 | – | –
> 11000 | X (100-<1000 fold) | 50 to 1000 | – | – | – | – | Cc1ccc(O)c(C)c1NC(=O)c1cnc(Nc2ccn(CC(=O)NCCN(C)C)n2)s1 [BAA-160] | 3000 to 10000 | X (3-<10 fold) | 500 to 3000 | – | –
> 11000 | Y (1000-5000 fold) | < 50 | – | – | – | – | Cc1ccc(O)c(C)c1NC(=O)c1cnc(Nc2ccn(CC(=O)N3CCN(CC4CC4)CC3)n2)s1 [BAA-183] | 3000 to 10000 | X (3-<10 fold) | < 500 | – | –
> 11000 | Y (1000-5000 fold) | < 50 | – | – | – | – | Cc1ccc(O)c(C)c1NC(=O)c1cnc(Nc2ccn(CC(=O)NC3CC3)n2)s1 [BAA-190] | 3000 to 10000 | X (3-<10 fold) | 500 to 3000 | – | –
> 11000 | X (100-<1000 fold) | < 50 | – | – | – | – | Cc1ccc(O)c(C)c1NC(=O)c1cnc(Nc2ccn(CC(=O)OC(C)C)n2)s1 [BAA-209, Isopropyl 2-[3-[[5-[(3-hydroxy-2,6-dimethyl-phenyl)carbamoyl]thiazol-2-yl]amino]pyrazol-1-yl]acetate] | 500 to 3000 | >X (3-<10 fold) | < 500 | – | –
> 11000 | X (100-<1000 fold) | < 50 | – | – | – | – | Cc1ccc(O)c(C)c1NC(=O)c1cnc(Nc2ccn(CC(=O)NC3CCNCC3)n2)s1 [BAA-224, N-(3-hydroxy-2,6-dimethylphenyl)-2-((1-(2-oxo-2-(piperidin-4-ylamino)ethyl)-1H-pyrazol-3-yl)amino)thiazole-5-carboxamide] | 3000 to 10000 | Z (>30 fold) | < 500 | – | –
> 11000 | Y (1000-5000 fold) | < 50 | – | – | – | – | Cc1ccc(O)c(C)c1NC(=O)c1cnc(Nc2ccn(CC(=O)N3CCNC(C)(C)C3)n2)s1 [BAA-229, 2-((1-(2-(3,3-dimethylpiperazin-1-yl)-2-oxoethyl)-1H-pyrazol-3-yl)amino)-N-(3-hydroxy-2,6-dimethylphenyl)thiazole-5-carboxamide] | > 10000 | X (3-<10 fold) | 3000 to 10000 | – | –
– | – | – | 100 to 1000 | > 11000 | X (100-<1000 fold) | < 50 | Cc1ccc(O)c(C)c1NC(=O)c1cnc(Nc2ccc3ccncc3n2)s1 [BAA-597, 2-((1,7-naphthyridin-2-yl)amino)-N-(3-hydroxy-2,6-dimethylphenyl)thiazole-5-carboxamide] | – | – | – | 500 to 5000 | Y (>20 fold)
– | – | – | < 100 | 1000 to 11000 | X (100-<1000 fold) | < 50 | Cc1cn(CC(=O)N2CCC2C)nc1Nc1ncc(C(=O)Nc2c(C)ccc(O)c2C)s1 (stereo not drawn) [BAA-598, N-(3-hydroxy-2,6-dimethylphenyl)-2-((4-methyl-1-(2-(2-methylazetidin-1-yl)-2-oxoethyl)-1H-pyrazol-3-yl)amino)thiazole-5-carboxamide] | – | – | – | 500 to 5000 | Y (>20 fold)
– | – | – | 100 to 1000 | 1000 to 11000 | X (100-<1000 fold) | < 50 | COC[C@H]1CCCN1C(=O)Cn1cc(C)c(Nc2ncc(C(=O)Nc3c(C)ccc(O)c3C)s2)n1 [BAA-599, N-(3-Hydroxy-2,6-dimethyl-phenyl)-2-[[1-[2-[(2R)-2-(methoxymethyl)pyrrolidin-1-yl]-2-oxo-ethyl]-4-methyl-pyrazol-3-yl]amino]thiazole-5-carboxamide] | – | – | – | > 5000 | Y (>20 fold)
– | – | – | < 100 | 1000 to 11000 | X (100-<1000 fold) | < 50 | Cc1cn(CC(=O)N2CCCC2c2ccccc2)nc1Nc1ncc(C(=O)Nc2c(C)ccc(O)c2C)s1 (stereo not drawn) [BAA-600, N-(3-hydroxy-2,6-dimethylphenyl)-2-((4-methyl-1-(2-oxo-2-(2-phenylpyrrolidin-1-yl)ethyl)-1H-pyrazol-3-yl)amino)thiazole-5-carboxamide] | – | – | – | 500 to 5000 | Y (>20 fold)
– | – | – | < 100 | 1000 to 11000 | X (100-<1000 fold) | < 50 | Cc1cn(CC(=O)N2CCCC2(C)C)nc1Nc1ncc(C(=O)Nc2c(C)ccc(O)c2C)s1 [BAA-605, 2-((1-(2-(2,2-dimethylpyrrolidin-1-yl)-2-oxoethyl)-4-methyl-1H-pyrazol-3-yl)amino)-N-(3-hydroxy-2,6-dimethylphenyl)thiazole-5-carboxamide] | – | – | – | > 5000 | Y (>20 fold)
– | – | – | < 100 | 1000 to 11000 | X (100-<1000 fold) | < 50 | COCC1(N(C)C(=O)Cn2cc(C)c(Nc3ncc(C(=O)Nc4c(C)ccc(O)c4C)s3)n2)CC1 [BAA-607] | – | – | – | > 5000 | Y (>20 fold)
